Experimental findings from ChEMBL document CHEMBL5370539, “Oxazole-4-carboxamide/butylated hydroxytoluene hybrids with GSK-3β inhibitory and neuroprotective activities against Alzheimer's disease” (Eur J Med Chem, 2023) are described below.

The source made the active and inactive calls. The rule behind the calls is not given here.

Series [1] addresses Glycogen synthase kinase-3 beta (Homo sapiens, UniProt P49841). Briefly: Inhibition of human GSK-3beta overexpressed in human HEK293T cells assessed as decrease in Tau phosphorylation at t205 at 0.625 to 10 uM incubated for 24 hrs by Western blot analysis. It is filed as cell-based. The settings on record: dose 0.625-10 µM.
Series [2] deals with PC12. Briefly: Activation of Nrf2-ARE pathway in rat PC-12 cells assessed as increase in GCLM expression level at 2.5 to 10 uM incubated for 24 hrs by Western blot analysis. It is filed as cell-based. The settings on record: filed as activator, dose 2.5-10 µM. In general terms: A western blot detects proteins with antibodies after separation by electrophoresis.
Series [3] deals with PC-12. Briefly: Anti-apoptotic activity against H2O2-induced apoptosis in rat PC12 cells assessed as living cells at 5 uM preincubated for 12 hrs followed by replacement with fresh media and H2O2 stimulation for 12 hrs by Annexin-V/7-AAD staining based flow cytometry (Rvb=92.9%). It is filed as functional.
Series [4] concerns Mus musculus. Briefly: Antialzheimer activity in okadaic acid-induced cognitive impairment ICR mouse model assessed as reduction in escape time at 0.08 to 0.24 mg/kg, iv twice at 3days interval before and after okadaic acid stimulation measured upto 14 days by Morris water maze test relative to control. The settings on record: dose 0.08-0.24 mg/kg, time <= 14.0 day. It is filed as functional, organism-based.

In series [5] the test system is PC12. Briefly: Activation of Nrf2-ARE pathway in rat PC-12 cells assessed as increase in Nrf2 expression level at 2.5 to 10 uM incubated for 12 hrs by Western blot analysis. The class given is cell-based. The settings on record: filed as activator, dose 2.5-10 µM.
Series [6] concerns PC12. Briefly: Activation of Nrf2-ARE pathway in rat PC-12 cells assessed as increase in HO-1 expression level at 2.5 to 10 uM incubated for 6 hrs by Western blot analysis. Particulars: filed as activator, dose 2.5-10 µM. It is filed as cell-based.
Series [7] relates to PC-12. Briefly: Anti-apoptotic activity against H2O2-induced apoptosis in rat PC12 cells assessed as early apoptotic cells at 10 uM preincubated for 12 hrs followed by replacement with fresh media and H2O2 stimulation for 12 hrs by Annexin-V/7-AAD staining based flow cytometry (Rvb=0.8%). It is filed as functional. Background: Flow cytometry measures light scatter and fluorescence of single cells or particles in a stream.

Series [8] has as its system Mus musculus. Briefly: Antialzheimer activity in okadaic acid-induced cognitive impairment ICR mouse model assessed as increase in number of groups crossing virtual platform at 0.08 to 0.24 mg/kg, iv twice at 3days interval before and after okadaic acid stimulation measured upto 14 days by Morris water maze test relative to control. It is filed as functional, organism-based. The settings on record: dose 0.08-0.24 mg/kg, time <= 14.0 day.

Series [9] is described as follows: Toxicity in okadaic acid-induced cognitive impairment ICR mouse model assessed as body weight change at 0.08 to 0.24 mg/kg, iv twice at 3days interval before and after okadaic acid stimulation measured upto 14 days. It is filed as organism-based. The settings on record: in vivo, 336 h, dose 0.08-0.24 mg/kg, time < 14 day.
In series [10] the test system is PC-12. Briefly: Anti-apoptotic activity against H2O2-induced apoptosis in rat PC12 cells assessed as dead cells at 2.5 uM preincubated for 12 hrs followed by replacement with fresh media and H2O2 stimulation for 12 hrs by Annexin-V/7-AAD staining based flow cytometry (Rvb=4.1%). The class given is functional.
Series [11] relates to PC-12. Briefly: Neuroprotective activity against rat PC12 cells assessed as decrease in H2O2-induced intracellular ROS production at 2.5 to 10 uM preincubated for 12 hrs followed by replacement with fresh media and H2O2 stimulation for 12 hrs by DCFH-DA staining based flow cytometry. It is filed as functional, cell-based. The settings on record: dose 2.5-10 µM.
For series [12], the system named is PC-12. Briefly: Neuroprotective activity against rat PC12 cells assessed as decrease in H2O2-induced mitochondrial membrane potential level at 5 uM preincubated for 12 hrs followed by replacement with fresh media and H2O2 stimulation for 12 hrs by JC-1 dye based flow cytometry (Rvb= 95.3%). The class given is functional. More on the design: scale not given: the % may be the effect or the level left.

Series [13] concerns PC-12. Briefly: Anti-apoptotic activity against H2O2-induced apoptosis in rat PC12 cells assessed as dead cells at 5 uM preincubated for 12 hrs followed by replacement with fresh media and H2O2 stimulation for 12 hrs by Annexin-V/7-AAD staining based flow cytometry (Rvb=4.1%). It is filed as functional.

Glycogen synthase kinase-3 beta, sequence (P49841 whole entry, looked up): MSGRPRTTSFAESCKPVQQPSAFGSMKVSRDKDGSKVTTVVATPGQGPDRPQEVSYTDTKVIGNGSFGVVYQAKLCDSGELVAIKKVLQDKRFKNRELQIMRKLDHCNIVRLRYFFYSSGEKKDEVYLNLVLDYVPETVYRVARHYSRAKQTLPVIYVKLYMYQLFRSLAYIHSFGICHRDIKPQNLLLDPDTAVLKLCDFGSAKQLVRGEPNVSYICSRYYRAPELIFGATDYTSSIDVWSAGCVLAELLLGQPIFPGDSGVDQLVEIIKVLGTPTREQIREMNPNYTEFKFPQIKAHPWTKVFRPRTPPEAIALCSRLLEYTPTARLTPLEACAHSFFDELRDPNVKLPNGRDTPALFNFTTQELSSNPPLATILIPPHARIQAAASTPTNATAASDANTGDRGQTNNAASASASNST

Regarding `COc1ccc(-c2ocnc2C(=O)NCCCc2ccc(NC(=O)/C=C/c3cc(C(C)(C)C)c(O)c(C(C)(C)C)c3)cc2)cc1Cl`, the inhibition entry in series [1] was “Dose-Dependent Effect”. In addition, the Activity result is “Dose-Dependent Effect” in the series with PC12 [2]; 93.1% with PC-12 [3]; “Dose-Dependent Effect” in the series on Mus musculus [4]; “Dose-Dependent Effect” in the series with PC12 [5]; “Dose-Dependent Effect” with PC12 [6]; 2% with PC-12 [7]. Moreover, the Activity entry in series [9] is “Non-Toxic”; in the series on PC-12 [10] it was 1.3%; in the series with PC-12 [11], “Dose-Dependent Effect”; with PC-12 [12], 72.6%; in the series with PC-12 [13], 2.5%. The result in the series on Mus musculus [8] was Active.
